Series [1] deals with SARS-CoV-2 (USA_WA1/2020). The series can be described thus: microbe, parasite or virus in culture. Type of series: cell-based.
The conditions of series [2]: human, cited from earlier work; for Cmax: Single dose 600 mg PO, ref Winstanley et al. (1987).
A short description of series [3]: in vitro. The note with it: African green monkey.
Series [4] deals with Vero E6 cells. The note with it: Vero E6 cells without virus, 72 h.
[5] abbreviates: Severe acute respiratory syndrome coronavirus 2, Vero C1008, […], DMSO 0%, no-virus control 100%, hit confirmation, read-out: CPE % efficacy.
The mark [6] stands for this setting: Severe acute respiratory syndrome coronavirus 2, Vero C1008, 72 h, read-out: CPE EC50.
Where [7] appears, read: Severe acute respiratory syndrome coronavirus 2, Vero C1008, SARS-CoV-2 CPE assay, Vero E6 cells, confirmed anti-SARS-CoV-2 compounds, read-out: CPE EC50.
Setting [8] is: Severe acute respiratory syndrome coronavirus 2, Vero C1008, SARS-CoV-2 CPE assay, Vero E6 cells, efficacy, read-out: CPE % Efficacy.
Where [9] appears, read: Severe acute respiratory syndrome coronavirus 2, Vero C1008, SARS-CoV-2 CPE assay, Vero E6 cells, read-out: CPE % Efficacy.
Setting [10] is: Severe acute respiratory syndrome coronavirus 2, Vero C1008, SARS-CoV-2 CPE assay, Vero E6 cells, read-out: CPE EC50.

Structures can show the parent of a compound that is named as a salt. Where two headings read alike, the source gives them in different places.

For the molecule `CNCCC(Oc1ccc(C(F)(F)F)cc1)c1ccccc1` (racemic) [(+/-) -Fluoxetine, reference compound], the Emax in series [1] (setting [5]) was determined as 116%. For the same molecule, the “Elimination T1/2” value in series [2] (Single dose 40 mg PO, ref Eli Lilly and Company (1987)) is 24 to 72 h. Besides, the cytotoxicity in series [3] is < 30%.
For `CCN(CC)Cc1cc(Nc2ccnc3cc(Cl)ccc23)ccc1O.Cl.Cl.O.O` [Amodiaquine dihydrochloride, reference compound], the CPE % Efficacy in series [1] ([…], DMSO 0%, no-virus control 100%, hit confirmation) is listed as 87.2%. The EC50 in series [1] (read-out: CPE EC50) stood at 4 µM. In addition, the “% Cytotox” value in series [4] is listed as <30%. Also, the Cmax is 32 ± 3 ng/mL in series [2] and 69 nM in series [2] (read-out: Cmax).
Turning to `CN1CCC[C@@H]1CCO[C@](C)(c1ccccc1)c1ccc(Cl)cc1` [Clemastine fumarate, reference compound], the “Elimination T1/2” value in series [2] (Single dose 1.34 mg PO, ref Schran et al. (1996)) was 21.3 ± 11.6 h. The cytotoxicity in series [3] was < 30%.
Turning to `COC(=O)[C@H]1[C@H]2C[C@@H]3c4[nH]c5ccccc5c4CCN3C[C@H]2C[C@@H](OC(=O)c2cc(OC)c(OC)c(OC)c2)[C@@H]1OC` [Deserpidine, reference compound], the half-maximal effective concentration (EC50) in series [1] (setting [6]) was found to be 10 µM. In addition, in series [1] (setting [5]), the Emax is 84.7%. The “Elimination T1/2” value in series [2] (Single dose 0.25 mg PO, ref Zhang et al. (2009)) was 42.9 ± 17.8 h. In series [3], the cytotoxicity at 72 h is < 30%.
`CCC(=O)c1ccc2c(c1)N(CCCN(C)C)c1ccccc1S2` [Propionylpromazine hydrochloride]: in series [1] (setting [7]), the EC50 worked out at 11.2 µM. For the same molecule, the Emax in series [1] (setting [8]) worked out at 72.3%. Also, the cytotoxicity at 72 h in series [3] was found to be 19.8%.
As to `CNCCCC1c2ccccc2C=Cc2ccccc21` [Protriptyline hydrochloride], the Emax in series [1] (Severe acute respiratory syndrome coronavirus 2, Vero C1008, read-out: CPE % Efficacy) came out at 58.2%. Moreover, in series [1] (Severe acute respiratory syndrome coronavirus 2, Vero C1008, read-out: CPE EC50), the EC50 worked out at 11.2 µM. In series [3], this molecule displayed a CC50 of 12.6 µM and a cytotoxicity of 17.4%.
For the molecule `COCCN1CCN(Cc2ccc(-c3n[nH]c4c3C(=O)c3c(NC(=O)NN5CCOCC5)cccc3-4)cc2)CC1` [RGB-286638], the EC50 in series [1] (setting [7]) was 2.82 µM. Also, in series [1] (setting [8]), the Emax is 111%. Besides, in series [3], the CC50 at 72 h worked out at 0.32 µM and the cytotoxicity at 72 h worked out at 37.9%.
Turning to `COC(=O)[C@H]1[C@H]2C[C@@H]3c4[nH]c5cc(OC)ccc5c4CCN3C[C@H]2C[C@@H](OC(=O)/C=C/c2ccc(O)c(OC)c2)[C@@H]1OC` [Rescimetol, reference compound], the EC50 in series [1] (setting [6]) was determined as 8.9 µM. Also, the Emax in series [1] (setting [5]) is 81.8%. Besides, the cytotoxicity at 72 h in series [3] was < 30%.
On to `COC(=O)[C@H]1[C@H]2C[C@@H]3c4[nH]c5cc(OC)ccc5c4CCN3C[C@H]2C[C@@H](OC(=O)c2cc(OC)c(OC)c(OC)c2)[C@@H]1OC` [Reserpine], for which the EC50 in series [1] (setting [7]) was found to be 11.2 µM. The Emax in series [1] (setting [8]) was determined as 91.8%. In series [3], the CC50 was 19.9 µM and the cytotoxicity was 13.4%.
On to `Cc1nc(Nc2ccc(F)cc2)nc(N2CCc3ccccc3C2C)c1C` (stereo not shown) [Revaprazan HCl], for which, in series [1] (setting [7]), the EC50 is 5.01 µM. The Emax in series [1] (setting [8]) was 60.4%. Besides, the cytotoxicity at 72 h in series [3] is 49.9%.
Taken in the same sequence, the figures for `Oc1ccc(-c2nc(-c3ccncc3)c(-c3ccc(F)cc3)[nH]2)cc1` [SB-202190] were 3.98 µM, 95.8% and 62.4%.
`CN1CCC(c2cn(C)c3ccc(OS(=O)(=O)c4c(F)cccc4F)cc23)CC1` [SGS 518]: the Emax in series [1] (setting [9]) amounted to 101%. In series [1] (setting [10]), the EC50 is 12.6 µM. In series [3], this molecule displayed a CC50 of 8.91 µM and a cytotoxicity of 18.2%.
On to `CC1(C)CC(=O)c2c(C(F)(F)F)nn(-c3ccc(C(N)=O)c(N[C@H]4CC[C@H](OC(=O)CN)CC4)c3)c2C1` [SNX-5422], for which the EC50 in series [1] (setting [7]) worked out at 1.58 µM. Also, the Emax in series [1] (setting [8]) came out at 33.8%. In series [3], this molecule displayed a CC50 of 0.56 µM and a cytotoxicity of 27.4%.
Taken in the same sequence, the figures for `O=C(/C=C/c1ccccc1)NC(NC(=S)Nc1cccc2cccnc12)C(Cl)(Cl)Cl` (stereo not shown) [Salubrinal] were 10 µM, 38.3%, 5.01 µM and 15.9%.
For the molecule `Cc1cc(O)c2c(c1)O[C@@]1(C)CC[C@H]3C(C)(C)CCC[C@]34CO[C@@H]2[C@H]41` [Siccanin], the Emax in series [1] (setting [9]) came to 104%. Also, the EC50 in series [1] (setting [10]) is 12.6 µM. Further, the cytotoxicity at 72 h in series [3] worked out at 0%.
Regarding `O=C(CCCN1CCC2(CC1)C(=O)NCN2c1ccccc1)c1ccc(F)cc1` [Spiperone], the EC50 in series [1] (setting [7]) stood at 4.47 µM. In addition, in series [1] (setting [8]), the Emax is 61.2%. In series [3], this molecule yielded a CC50 at 72 h of 3.55 µM and a cytotoxicity at 72 h of 30%.
On to `CN1CCN(CC/C=C2/c3ccccc3Sc3ccc(S(=O)(=O)N(C)C)cc32)CC1` [THIOTHIXENE], for which the EC50 in series [1] (setting [7]) was determined as 3.98 µM. For the same molecule, the Emax in series [1] (setting [8]) was found to be 70.6%. In series [3], this molecule had a CC50 of 12.6 µM and a cytotoxicity of 108%.
`CCN(CC)CCOc1ccc2c(c1)C(=O)c1cc(OCCN(CC)CC)ccc1-2` [TILORONE]: the EC50 in series [1] (setting [7]) stood at 3.98 µM. Moreover, the Emax in series [1] (setting [8]) is 74.3%. In addition, in series [3], the CC50 at 72 h was determined as 11.2 µM and the cytotoxicity at 72 h amounted to 97.2%.
Take `CC/C(=C(\c1ccccc1)c1ccc(OCCN(C)C)cc1)c1ccccc1` [Tamoxifen]: the Emax in series [1] (setting [8]) was 102%. For the same molecule, the cytotoxicity in series [3] is 93.9%.
On to `CN1CCN(CCCN2c3ccccc3Sc3ccc(S(=O)(=O)N(C)C)cc32)CC1` [Thioproperazine dimethanesulfonate], for which the EC50 in series [1] (setting [7]) is 8.91 µM. In addition, the Emax in series [1] (setting [8]) stood at 54%. In series [3], this molecule registered a CC50 at 72 h of 15.8 µM and a cytotoxicity at 72 h of 19.6%.
Regarding `CC(=O)O[C@@H]1C[C@H](O)[C@@]23CO[C@@H](O)[C@]1(C)[C@@H]2C[C@@H](O)[C@]1(C)[C@@H]3C(=O)[C@H](OC(C)=O)[C@@]2(C)[C@H](c3ccoc3)C[C@H]3O[C@]321` [Toosendanin], the EC50 in series [1] (setting [7]) came out at 1.19 µM. Also, in series [1] (setting [8]), the Emax worked out at 88.9%. Also, in series [3], the CC50 worked out at 2.66 µM and the cytotoxicity came out at 40.9%.
On the same counts, the results for `CC(CN(C)C)CN1c2ccccc2CCc2ccccc21` (stereo not shown) [Trimipramine maleate] are 10 µM, 51.8%, 15.8 µM and 19.8%.
For the molecule `CC(C)(O)CNc1ncc(-c2ccnc(Nc3ccnc(Cl)c3)n2)c(CC2CC2)n1` [VPS34-IN1, reference compound], in series [1] (Figure 3), the “Shape of concentration-response in the CPE assay” value is recorded as “bell-shaped concentration-responses due to cytotoxicity”. Moreover, the EC50 in series [1] (setting [6]) is 0.63 µM. Besides, the Emax in series [1] (setting [5]) came to 103%. In addition, the CC50 in series [3] was determined as 10 µM.
For `N#Cc1ccc2[nH]cc(CCCCN3CCN(c4ccc5oc(C(N)=O)cc5c4)CC3)c2c1` [Vilazodone Hydrochloride], the Emax in series [1] (setting [9]) was determined as 90.8%. In series [1] (setting [10]), the EC50 stood at 12.6 µM. In series [3], the CC50 at 72 h was 19.9 µM and the cytotoxicity at 72 h was determined as 25.3%.
Take `CN1CC[C@@H](c2c(O)cc(O)c3c(=O)cc(-c4ccc(C(F)(F)F)cc4Cl)oc23)[C@@H]1CO` [Voruciclib]: the Emax in series [1] (setting [9]) stood at 39.2%. Moreover, the EC50 in series [1] (setting [10]) worked out at 14.1 µM. Moreover, the cytotoxicity in series [3] came out at 12.9%.
On to `O=C(Nc1ccc(-c2ccnc(Nc3ccc(N4CCOCC4)cc3)n2)cc1)C1CCCN1` (stereo not shown) [XL019], for which the Emax in series [1] (setting [9]) stood at 53.9%. Further, in series [1] (setting [10]), the EC50 stood at 14.1 µM. In series [3], the CC50 stood at 8.91 µM and the cytotoxicity turned out to be 61.8%.

The EC50 is the midpoint of the concentration-response curve. The term Cmax denotes the maximum level reached in the sampled fluid or tissue.

These data come from publication PMC7942396, “Drug Repurposing Screen for Compounds Inhibiting the Cytopathic Effect of SARS-CoV-2” (Frontiers in Pharmacology, 2021).
